Laboratory results published in patent publication US20160076098A1, “METHODS OF DIAGNOSING AND TREATING CHRONIC PAIN” (priority 2013, published 2016).

Legend:
[1] = tested on: RAW 264.7 cells; experiment: Exosomal RNA sequencing (NGS) of naive and LPS-stimulated RAW 264.7 cells; format: cell-based, mouse; conditions: exosomal transcript level after LPS stimulation of RAW 264.7 cells compared with exosomes from naive cells
Experimental: RAW 264.7 cells (ATCC) and RAW-Blue cells (Invivogen) were maintained in complete culture media (1×DMEM, 10% heat inactivated FBS). For exosome collection, RAW 264.7 cells (1×10^7) were plated in 150 mm dishes with complete culture media. At 24 hr, media was replaced with exosome-depleted media (1×DMEM, 10% heat-inactivated FBS depleted of exosomes by ultracentrifugation) with or without 1 μg/ml LPS (Sigma)) and incubated overnight. Media was collected in 50 ml tubes at 24 hr for exosome purification. Human THP1 macrophages were used in some experiments.
Exosome purification from cell culture media was performed as described (McDonald et al., 2013, J Visualized Exp 2013(76):e50294). […]
The SOLiD whole transcriptome analysis kit protocol with the fragmentation step omitted was used to generate a cDNA library for each sample. […] RNA concentration was measured using Nanodrop 1000 (NanoDrop Technologies, Wilmington, Del.). Total RNA from 3 independent exosome purifications was pooled to obtain 4 μg exosomal RNA per library (due to a limited amount of RNA in individual preparations), analyzed for integrity using the Agilent RNA 6000 Pico Kit (RNA integrity number between 1.6 and 2.1), and gel purified. […]

[2] = target: CYP3A4 (Homo sapiens, UniProt P08684); conditions: known route of elimination; cited from earlier work
Chain of CYP3A4 (P08684 whole entry): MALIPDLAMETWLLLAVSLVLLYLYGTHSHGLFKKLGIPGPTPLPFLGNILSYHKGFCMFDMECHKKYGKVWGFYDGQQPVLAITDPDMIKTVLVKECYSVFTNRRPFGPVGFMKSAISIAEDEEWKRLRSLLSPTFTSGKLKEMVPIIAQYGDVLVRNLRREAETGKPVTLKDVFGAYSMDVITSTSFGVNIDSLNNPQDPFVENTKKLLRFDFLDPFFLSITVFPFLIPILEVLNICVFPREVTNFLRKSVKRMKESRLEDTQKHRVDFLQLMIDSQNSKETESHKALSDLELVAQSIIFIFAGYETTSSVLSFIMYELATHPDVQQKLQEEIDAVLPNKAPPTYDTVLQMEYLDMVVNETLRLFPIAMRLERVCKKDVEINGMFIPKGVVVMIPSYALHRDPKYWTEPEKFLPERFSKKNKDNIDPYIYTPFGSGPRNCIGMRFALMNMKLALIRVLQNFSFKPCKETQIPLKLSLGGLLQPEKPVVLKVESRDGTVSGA

[3] = tested on: MCP-1, IFNγ and IL-1β; experiment: Inflammatory markers in CRPS patients following ketamine treatment; format: in vivo, human; conditions: p<0.05
Description: Additional analysis comparing miRNA profiles from responders, non-responders and 20 control subjects enabled identification of additional miRNAs.

[4] = tested on: β-endorphin; experiment: β-endorphin levels in plasma of CRPS patients before and after ketamine therapy; format: in vivo, human; conditions: after vs before ketamine therapy
Experimental: FIG. 8 is a graph showing no significant difference in the basal (pre-treatment) plasma levels of β-endorphin between patients and healthy controls. […] Shown are β-endorphin levels in the plasma from CRPS patients (responders and non-responders to ketamine therapy) before treatment and healthy controls and in CRPS patients before and after ketamine therapy. Responders; n=11, non-responders; n=6 and control; n=5. Results represent mean±SEM. The statistical significance was calculated using one-way ANOVA*: p<0.05 relative to non-responders after treatment.
Analgesic pathway targets were selected for validation. Cross talk between analgesic and endocrinal systems is known (FIG. 6). Pro-opiomelanocortin (POMC) is a polypetide precursor of many peptide hormones in the hypothalamopitiutary axis, including Adrenocorticotrophic hormone (ACTH), Melanocyte stimulating hormone (MSH), and Beta-endorphin. Prohormone convertase cleaves POMC yielding important hormonal peptides ACTH, MSH, […] and β-endorphin. β-endorphin is an important member of the endogenous opioid system. Its release is important in modulation of mood, pain, inflammatory responses. Several studies have linked the expression of POMC and its daughter peptide β-endorphin to placebo effect. Non-Responders to ketamine therapy had increased expression of POMC mRNA in blood relative to the responders and healthy controls (FIG. 7). […]

[5] = tested on: miRNAs in blood of CRPS patients; conditions: blood of responders, after vs before ketamine treatment
Experimental: The experiments described herein were conducted in order to determine the utility of miRNAs as biomarkers for CRPS in both the effectiveness of a treatment and the severity and progression of individual cases. As presented herein, the changes in levels of 758 miRNAs were examined in blood of 19 CRPS patients before and after ketamine treatment, using Taqman low-density array cards.
Ketamine Treatment Ketamine treatment was given to the subjects by sub-anesthetic continuous intravenous administration. Infusion started at a rate of 10 mg/hr and increased in steps of 10 mg/hr at every 2 hours to a maximum of 40 mg/hr (see FIG. 4). Blood samples were collected from CRPS patients before and after ketamine treatment. miRNA Analysis
Total RNA was isolated from blood samples using mirVana kit (Applied Biosystems) and cDNA synthesis was performed. Levels of 758 miRNAs were analyzed by using a Taqman low-density array (TLDA) card.
A positive fold change indicates a higher expression of the miRNA in responders, while a negative fold change indicates a lower expression of the miRNA in responders.

[6] = tested on: exosomes from human serum; experiment: miRNA profiling of human serum-derived exosomes, patients with CRPS vs control subjects (TLDA cards)
Experimental: Exosome purification from cell culture media was performed as described (McDonald et al., 2013, J Visualized Exp 2013(76):e50294). Centrifugation was used to remove cell debris (500×g for 10 min); the supernatant was transferred and centrifuged (16,500×g for 20 min) Cell-free supernatants were filtered (0.22 μm; VWR, Radnor, Pa.) and exosomes were pelleted by ultracentrifugation (120,000×g for 70 min) The exosomal pellet was resuspended in buffer specific to downstream experiments and vortexed 2×15 seconds. For RNA purification, RNase inhibitors were added after the first centrifugation step at 1 U/ml (RNAsin Plus; Promega, Madison, Wis.) and at all subsequent steps at 1 U/μl. […]
TLDA microfluidic cards (Life Technologies) were used for miRNA profiling as previously described. […] For miRNAs profiled from exosomes collected from RAW 264.7 cells, significance was determined by applying a P value cutoff of 0.05 to the results of a paired-samples t test. For human exosomal miRNAs, significance was determined by applying the Benjamini-Hochberg false discovery rate correction to the results of a 2-tailed t test.
To determine whether exosomal miRNAs reflect the miRNA signature in whole blood of patients with CRPS, miRNAs in exosomes purified from the serum of 6 patients with CRPS and 6 healthy controls we analyzed (FIG. 38).

[7] = negative = lower expression following treatment

Which PS/cpntrol ratio [1] does the source give for Pgcp here?
The PS/cpntrol ratio was 2.94.

For Gdf11, which PS/cpntrol ratio [1] is on record?
Its PS/cpntrol ratio is 4.82.

With `CNC1(c2ccccc2Cl)CCCCC1=O` (stereo not drawn) [ketamine] as the compound, how does the Metabolism [2] read?
The Metabolism was “demethylated mostly by CYP3A4 followed by conjugation with glucuronic acid”.

What about the IFNγ level [3] of the same compound?
Its IFNγ level is “decreased significantly”.

And the IL-1β level [3]?
Its IL-1β level is “decreased significantly”.

What about the MCP-1 level [3] of the same compound?
Its MCP-1 level is “decreased significantly”.

And the β-endorphin plasma level ([4]; non-responders)?
Its β-endorphin plasma level is “but not the non-responders”.

And the β-endorphin plasma level ([4]; responders)?
Its β-endorphin plasma level is “induced an increase in β-endorphin”.

What about the “Fold change RNU44.A” value [5, 7] of the same compound?
Its value is −1.80.

What about the “Fold change hsa-miR-337-3p” value [5, 7] of the same compound?
The value was −18.20.

What about the “Fold change hsa-miR-597” value [5, 7] of the same compound?
Its value is −16.23.

What about the “Fold change hsa-miR-605” value [5, 7] of the same compound?
Its value is −36.08.

What about the “Fold change hsa-miR-650” value ([5]; positive = higher expression following treatment) of the same compound?
Its value is 8.01.

Which ddct [6] does the source give for “RNU48 (GAUGACCCCAGGUAACUCUGAGUGUGUCGCUGAUGCCAUCACCGCAGCGCUCUGACC; chemistry not fully specified; listed as Homo sapiens)” here?
Its ddct is 2.147.

What about the fold-change [6] of the same compound?
The fold-change was −4.429.
